In patent US20190240210A1, “Treatment Method by Combined Use of MDM2 Inhibitor and DNA Methyltransferase Inhibitor” (DAIICHI SANKYO COMPANY, LIMITED, priority 2016, published 2019):

Assays:
[1] = system: human acute myeloid leukemia cell line MOLM-13; experiment: In vivo effect of combined use of Compound A and azacitidine on subcutaneous MOLM-13 tumors in NOD-SCID mice (Test Example 1); details: for TGI (%): 17 days after tumor inoculation
Method: (§1) Human acute myeloid leukemia cell line MOLM-13 cells were suspended to 5×10^7 cells/mL using phosphate-buffered saline. 0.1 mL of the prepared cell suspension was subcutaneously transplanted to each NOD-SCID mouse (male, 6 weeks old). […] The major axis (mm) and minor axis (mm) of tumor were measured over time using an electronic digital caliper. […] In addition, the results of the last body weight measurement were used in dose calculation. […] A: Average tumor volume of the compound-administered group on the date of assessment (*) B: Average tumor volume of the untreated control group on the date of assessment (*) *: The tumor volume was calculated according to ½×[Major axis of tumor]×[Minor axis of tumor]×[Minor axis of tumor].

[2] = Body weight change of MOLM-13 tumor-bearing NOD-SCID mice, Compound A and azacitidine (Test Example 1); assay type: in vivo, mouse
Method: (§2) Human acute myeloid leukemia cell line MOLM-13 cells were suspended to 5×10^7 cells/mL using phosphate-buffered saline. 0.1 mL of the prepared cell suspension was subcutaneously transplanted to each NOD-SCID mouse (male, 6 weeks old). On 6 days after the tumor inoculation, after confirmation that the average tumor volume exceeded 100 mm^3, the mice were grouped on the basis of their tumor volume values. 25 mg/kg or 50 mg/kg Compound A was orally administered by forced administration to the mice. 2.5 mg/kg or 4 mg/kg azacitidine was intravenously administered to the tails of the mice. For a combined use group, 25 mg/kg or 50 mg/kg Compound A and 2.5 mg/kg or 4 mg/kg azacitidine were administered sequentially. The administration of Compound A was performed once a day for 5 consecutive days (6 to 10 days after the tumor inoculation) from the date of grouping (6 days after the tumor inoculation), and after a 2-day drug holiday, performed once a day for 4 consecutive days (13 to 16 days after the tumor inoculation). The administration of azacitidine was performed once a day for 5 consecutive days (6 to 10 days after the tumor inoculation) from the date of grouping (6 days after the tumor inoculation). The major axis (mm) and minor axis (mm) of tumor were measured over time using an electronic digital caliper. Tumor growth inhibition % (TGI %) on the date of assessment (17 days after the tumor inoculation) calculated according to calculation formula (4) shown below was used in evaluation. Also, the body weights were measured over time using an automatic balance for small animals, and body weight change % was calculated according to calculation formula (5) shown below to study the influence of drug administration on the body weights. In addition, the results of the last body weight measurement were used in dose calculation.
(§3) Body weight change (%)=Average body weight change % of the individuals (5)
(§4) Body weight change % of each individual=[…]
(§5) BWn: Body weight on day n
(§6) BWs: Body weight on the start day of administration

[3] = system: human acute myeloid leukemia cell line MOLM-13; experiment: In vivo effect of combined use of Compound A and decitabine on subcutaneous MOLM-13 tumors in NOD-SCID mice (Test Example 2); details: for TGI (%): 17 days after tumor inoculation
Method: as §1, with “old). […] For a combined use group, 25 mg/kg or 50 mg/kg Compound A and 1 mg/kg or 50 mg/kg decitabine were administered sequentially.” for “old).”

[4] = Body weight change of MOLM-13 tumor-bearing NOD-SCID mice, Compound A and decitabine (Test Example 2); assay type: in vivo, mouse
Method: as §2, with “the mice. 1 mg/kg or” for “the mice. 2.5 mg/kg or”, “mg/kg or 50 mg/kg decitabine” for “mg/kg or 4 mg/kg azacitidine”, “50 mg/kg decitabine was intravenously” for “4 mg/kg azacitidine was intravenously”, “A and 1 mg/kg or” for “A and 2.5 mg/kg or”, “50 mg/kg decitabine were administered” for “4 mg/kg azacitidine were administered”, “administration of decitabine to the 50 mg/kg group was performed at the date of grouping (6 days after the tumor inoculation), and the administration thereof to the 1 mg/kg group was performed” for “administration of azacitidine was performed”
as §3, §4, §5, §6

[5] = azacitidine 4 mg/kg iv, day 6 after tumor inoculation
[6] = azacitidine 4 mg/kg iv, day 8 after tumor inoculation
[7] = azacitidine 4 mg/kg iv, day 10 after tumor inoculation
[8] = azacitidine 4 mg/kg iv, day 13 after tumor inoculation
[9] = azacitidine 4 mg/kg iv, day 15 after tumor inoculation
[10] = azacitidine 4 mg/kg iv, day 17 after tumor inoculation
[11] = Compound A 25 mg/kg oral, day 6 after tumor inoculation
[12] = Compound A 25 mg/kg oral, day 8 after tumor inoculation
[13] = Compound A 25 mg/kg oral, day 10 after tumor inoculation
[14] = Compound A 25 mg/kg oral, day 13 after tumor inoculation
[15] = Compound A 25 mg/kg oral, day 15 after tumor inoculation
[16] = Compound A 25 mg/kg oral, day 17 after tumor inoculation
[17] = Compound A 50 mg/kg oral, day 6 after tumor inoculation
[18] = Compound A 50 mg/kg oral, day 8 after tumor inoculation
[19] = Compound A 50 mg/kg oral, day 10 after tumor inoculation
[20] = Compound A 50 mg/kg oral, day 13 after tumor inoculation
[21] = Compound A 50 mg/kg oral, day 15 after tumor inoculation
[22] = Compound A 50 mg/kg oral, day 17 after tumor inoculation
[23] = decitabine 1 mg/kg iv, day 6 after tumor inoculation
[24] = decitabine 1 mg/kg iv, day 8 after tumor inoculation
[25] = decitabine 1 mg/kg iv, day 10 after tumor inoculation
[26] = decitabine 1 mg/kg iv, day 13 after tumor inoculation
[27] = decitabine 1 mg/kg iv, day 15 after tumor inoculation
[28] = decitabine 1 mg/kg iv, day 17 after tumor inoculation
[29] = decitabine 50 mg/kg iv, day 6 after tumor inoculation
[30] = decitabine 50 mg/kg iv, day 8 after tumor inoculation
[31] = decitabine 50 mg/kg iv, day 10 after tumor inoculation
[32] = decitabine 50 mg/kg iv, day 13 after tumor inoculation
[33] = decitabine 50 mg/kg iv, day 15 after tumor inoculation
[34] = decitabine 50 mg/kg iv, day 17 after tumor inoculation

Nc1ncn([C@@H]2O[C@H](CO)[C@@H](O)[C@H]2O)c(=O)n1 [Azacitidine, 4-amino-1-β-D-ribofuranosyl-1,3,5-triazin-2(1H)-one, reference compound]
TGI (%) ([1]; azacitidine 4 mg/kg iv): 28%
Estimated tumor volume, average [1, 5]: 115 mm^3
Estimated tumor volume, average [1, 6]: 226 mm^3
Estimated tumor volume, average [1, 7]: 334 mm^3
Estimated tumor volume, average [1, 8]: 637 mm^3
Estimated tumor volume, average [1, 9]: 1359 mm^3
Estimated tumor volume, average [1, 10]: 1855 mm^3
Body weight change (%), average [2, 5]: 0.0%
Body weight change (%), average [2, 6]: −0.2%
Body weight change (%), average [2, 7]: −0.4%
Body weight change (%), average [2, 8]: 5.4%
Body weight change (%), average [2, 9]: 8.8%
Body weight change (%), average [2, 10]: 12.1%

CC1(C)CCC2(CC1)N[C@@H](C(=O)N[C@@H]1CC[C@@H](C(N)=O)OC1)[C@H](c1ccnc(Cl)c1F)[C@]21C(=O)Nc2cc(Cl)ccc21.Cc1ccc(S(=O)(=O)O)cc1 [Compound A, (3′R,4′S,5′R)—N-[(3R,6S)-6-carbamoyltetrahydro-2H-pyran-3-yl]-6″-chloro-4′-(2-chloro-3-fluoropyridin-4-yl)-4,4-dimethyl-2″-oxo-1″,2″-dihydrodispiro[cyclohexane-1,2′-pyrrolidine-3′,3″-indole]-5′-carboxamide p-toluenesulfonate]
TGI (%) ([1]; Compound A 25 mg/kg oral): 34%
Estimated tumor volume, average [1, 11]: 118 mm^3
Estimated tumor volume, average [1, 12]: 269 mm^3
Estimated tumor volume, average [1, 13]: 418 mm^3
Estimated tumor volume, average [1, 14]: 834 mm^3
Estimated tumor volume, average [1, 15]: 1346 mm^3
Estimated tumor volume, average [1, 16]: 1697 mm^3
TGI (%) ([1]; Compound A 50 mg/kg oral): 72%
Estimated tumor volume, average [1, 17]: 116 mm^3
Estimated tumor volume, average [1, 18]: 180 mm^3
Estimated tumor volume, average [1, 19]: 197 mm^3
Estimated tumor volume, average [1, 20]: 364 mm^3
Estimated tumor volume, average [1, 21]: 545 mm^3
Estimated tumor volume, average [1, 22]: 721 mm^3
Body weight change (%), average [2, 11]: 0.0%
Body weight change (%), average [2, 12]: 2.5%
Body weight change (%), average [2, 13]: 3.7%
Body weight change (%), average [2, 14]: 9.0%
Body weight change (%), average [2, 15]: 10.8%
Body weight change (%), average [2, 16]: 13.8%
Body weight change (%), average [2, 17]: 0.0%
Body weight change (%), average [2, 18]: 1.7%
Body weight change (%), average [2, 19]: 4.4%
Body weight change (%), average [2, 20]: 8.7%
Body weight change (%), average [2, 21]: 8.9%
Body weight change (%), average [2, 22]: 10.7%
TGI (%) ([3]; Compound A 25 mg/kg oral): 22%
Estimated tumor volume, average [3, 11]: 147 mm^3
Estimated tumor volume, average [3, 12]: 257 mm^3
Estimated tumor volume, average [3, 13]: 388 mm^3
Estimated tumor volume, average [3, 14]: 876 mm^3
Estimated tumor volume, average [3, 15]: 1213 mm^3
Estimated tumor volume, average [3, 16]: 1825 mm^3
TGI (%) ([3]; Compound A 50 mg/kg oral): 76%
Estimated tumor volume, average [3, 17]: 143 mm^3
Estimated tumor volume, average [3, 18]: 227 mm^3
Estimated tumor volume, average [3, 19]: 170 mm^3
Estimated tumor volume, average [3, 20]: 310 mm^3
Estimated tumor volume, average [3, 21]: 407 mm^3
Estimated tumor volume, average [3, 22]: 554 mm^3
Body weight change (%), average [4, 11]: 0.0%
Body weight change (%), average [4, 12]: 2.3%
Body weight change (%), average [4, 13]: 2.0%
Body weight change (%), average [4, 14]: 8.0%
Body weight change (%), average [4, 15]: 8.5%
Body weight change (%), average [4, 16]: 10.3%
Body weight change (%), average [4, 17]: 0.0%
Body weight change (%), average [4, 18]: 1.7%
Body weight change (%), average [4, 19]: 2.4%
Body weight change (%), average [4, 20]: 7.4%
Body weight change (%), average [4, 21]: 6.2%
Body weight change (%), average [4, 22]: 7.2%

Nc1ncn([C@H]2C[C@H](O)[C@@H](CO)O2)c(=O)n1 [Decitabine, 4-amino-1-(2-deoxy-β-D-erythro-pentofuranosyl)-1,3,5-triazin-2(1H)-one, reference compound]
TGI (%) ([3]; decitabine 1 mg/kg iv): 38%
Estimated tumor volume, average [3, 23]: 144 mm^3
Estimated tumor volume, average [3, 24]: 228 mm^3
Estimated tumor volume, average [3, 25]: 327 mm^3
Estimated tumor volume, average [3, 26]: 585 mm^3
Estimated tumor volume, average [3, 27]: 901 mm^3
Estimated tumor volume, average [3, 28]: 1441 mm^3
TGI (%) ([3]; decitabine 50 mg/kg iv): 14%
Estimated tumor volume, average [3, 29]: 145 mm^3
Estimated tumor volume, average [3, 30]: 206 mm^3
Estimated tumor volume, average [3, 31]: 365 mm^3
Estimated tumor volume, average [3, 32]: 732 mm^3
Estimated tumor volume, average [3, 33]: 1175 mm^3
Estimated tumor volume, average [3, 34]: 1997 mm^3
Body weight change (%), average [4, 23]: 0.0%
Body weight change (%), average [4, 24]: 2.6%
Body weight change (%), average [4, 25]: 2.5%
Body weight change (%), average [4, 26]: 7.8%
Body weight change (%), average [4, 27]: 11.5%
Body weight change (%), average [4, 28]: 14.3%
Body weight change (%), average [4, 29]: 0.0%
Body weight change (%), average [4, 30]: 3.7%
Body weight change (%), average [4, 31]: 6.0%
Body weight change (%), average [4, 32]: 9.6%
Body weight change (%), average [4, 33]: 10.3%
Body weight change (%), average [4, 34]: 14.6%
